From ChEMBL document CHEMBL1125532, “Synthesis and cholinergic properties of N-aryl-2-[[[5-[(dimethylamino)methyl]-2-furanyl]methyl]thio]ethylamino analogs of ranitidine” (J Med Chem, 1992)
Residue numbers refer to the chain shown, from its start. The source made the active and inactive calls. No cut-off for these calls is given here.

How the values were obtained:
Acetylcholinesterase [1] = molecular target: T1, Acetylcholinesterase (Homo sapiens, UniProt P22303)
Description: In vitro inhibition of human acetylcholinesterase.

Rattus norvegicus [2] = species: Rattus norvegicus
[3] = molecular target: T2, Muscarinic acetylcholine receptor M1 (Mus musculus, UniProt P12657); assay: biochemical
T2 sequence (P12657 whole entry): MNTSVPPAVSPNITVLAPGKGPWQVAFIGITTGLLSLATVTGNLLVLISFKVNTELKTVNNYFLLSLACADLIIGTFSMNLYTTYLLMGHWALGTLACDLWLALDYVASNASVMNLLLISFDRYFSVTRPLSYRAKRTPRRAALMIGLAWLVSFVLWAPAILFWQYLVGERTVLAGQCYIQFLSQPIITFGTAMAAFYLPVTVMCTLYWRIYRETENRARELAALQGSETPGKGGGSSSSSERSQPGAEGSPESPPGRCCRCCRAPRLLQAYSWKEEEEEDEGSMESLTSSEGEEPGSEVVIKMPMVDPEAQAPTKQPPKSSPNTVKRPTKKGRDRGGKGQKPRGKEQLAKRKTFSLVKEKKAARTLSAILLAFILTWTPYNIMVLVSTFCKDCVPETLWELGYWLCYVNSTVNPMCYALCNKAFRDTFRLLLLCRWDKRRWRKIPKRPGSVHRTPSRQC
Description: Inhibition of [3H]pirenzepine binding to mouse muscarinic acetylcholine receptor M1 from cerebral cortex

Cholinesterase = Cholinesterase (Homo sapiens, UniProt P06276)
Sequence of Cholinesterase (P06276 whole entry): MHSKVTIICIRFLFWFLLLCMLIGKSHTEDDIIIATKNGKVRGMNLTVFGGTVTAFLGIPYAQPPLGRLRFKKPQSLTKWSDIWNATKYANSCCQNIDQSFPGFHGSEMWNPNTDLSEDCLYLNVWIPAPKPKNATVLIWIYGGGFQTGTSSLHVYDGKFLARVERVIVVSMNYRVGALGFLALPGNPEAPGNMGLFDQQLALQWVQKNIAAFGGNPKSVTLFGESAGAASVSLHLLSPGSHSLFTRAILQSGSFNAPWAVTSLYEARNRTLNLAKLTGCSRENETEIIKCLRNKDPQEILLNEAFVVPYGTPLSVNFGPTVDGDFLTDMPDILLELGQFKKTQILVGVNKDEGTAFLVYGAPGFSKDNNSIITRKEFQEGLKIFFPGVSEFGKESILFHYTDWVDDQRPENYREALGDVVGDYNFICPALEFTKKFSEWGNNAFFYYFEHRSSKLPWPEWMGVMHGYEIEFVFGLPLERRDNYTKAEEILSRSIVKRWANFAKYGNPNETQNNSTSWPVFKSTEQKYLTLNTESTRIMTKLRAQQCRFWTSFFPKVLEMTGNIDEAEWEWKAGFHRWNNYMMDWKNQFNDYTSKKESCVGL
Description: In vitro inhibition of human butryl cholinesterase.

[4] = molecular target: T3, Muscarinic acetylcholine receptor M2 (Rattus norvegicus, UniProt P10980)
T3 sequence (P10980 whole entry): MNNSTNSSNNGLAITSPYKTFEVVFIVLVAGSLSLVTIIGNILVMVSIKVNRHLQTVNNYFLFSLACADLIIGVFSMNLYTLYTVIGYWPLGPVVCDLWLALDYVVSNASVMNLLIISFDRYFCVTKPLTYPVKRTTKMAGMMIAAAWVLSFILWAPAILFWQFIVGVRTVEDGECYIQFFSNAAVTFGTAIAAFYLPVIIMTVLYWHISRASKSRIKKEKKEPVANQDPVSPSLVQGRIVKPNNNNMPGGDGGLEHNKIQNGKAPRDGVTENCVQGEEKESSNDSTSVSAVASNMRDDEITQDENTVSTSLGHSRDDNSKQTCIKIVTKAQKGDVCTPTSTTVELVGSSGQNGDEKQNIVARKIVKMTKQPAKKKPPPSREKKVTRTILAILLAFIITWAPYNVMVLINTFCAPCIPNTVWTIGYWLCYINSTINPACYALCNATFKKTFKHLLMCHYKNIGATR
Description: Inhibition of [3H]N-methylscopolamine to rat muscarinic acetylcholine receptor M2 from heart tissue

[5] = molecular target: Cholinesterases; ACHE & BCHE (Homo sapiens) (UniProt P06276+P22303); assay: Ratio of IC50(BChE-I) to IC50(AChE-I); type: protein assay
Sequence of Cholinesterases; ACHE & BCHE (Homo sapiens) (P06276 whole entry, looked up): as the sequence (P06276 whole entry) above
Sequence of Cholinesterases; ACHE & BCHE (Homo sapiens) (P22303 whole entry, looked up): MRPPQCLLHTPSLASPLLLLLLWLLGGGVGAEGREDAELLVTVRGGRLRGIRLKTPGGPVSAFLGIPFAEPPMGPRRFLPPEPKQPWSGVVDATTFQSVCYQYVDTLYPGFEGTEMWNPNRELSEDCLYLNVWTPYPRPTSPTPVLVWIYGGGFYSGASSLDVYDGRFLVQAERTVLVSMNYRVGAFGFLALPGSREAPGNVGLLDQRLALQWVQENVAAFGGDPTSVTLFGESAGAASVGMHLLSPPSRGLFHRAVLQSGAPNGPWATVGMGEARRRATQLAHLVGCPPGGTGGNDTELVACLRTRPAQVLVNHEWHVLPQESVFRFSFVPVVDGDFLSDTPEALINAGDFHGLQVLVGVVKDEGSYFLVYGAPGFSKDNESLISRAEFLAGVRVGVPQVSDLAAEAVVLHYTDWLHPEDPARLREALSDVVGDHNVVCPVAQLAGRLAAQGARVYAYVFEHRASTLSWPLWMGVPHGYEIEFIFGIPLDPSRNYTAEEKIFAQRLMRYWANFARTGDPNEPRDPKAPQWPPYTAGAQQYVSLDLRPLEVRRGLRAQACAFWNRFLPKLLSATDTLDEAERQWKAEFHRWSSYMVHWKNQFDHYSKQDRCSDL

Rattus norvegicus [6] = species: Rattus norvegicus; assay: Ratio of IC50 (muscarinic acetylcholine receptor M2) to IC50 (muscarinic acetylcholine receptor M1)
Mus musculus [7] = assay: Effect on brain acetylcholine concentration in mice after intraperitoneal administration of 60% lethal dose (102 mg/kg); type: functional
[8] = molecular target: T4, Muscarinic acetylcholine receptor M2 (Mus musculus, UniProt Q9ERZ4); assay: biochemical
T4 sequence (Q9ERZ4 whole entry): T3 sequence (P10980 whole entry) with V270G, R316K, K321R, A331T, V336A

[9] = molecular target: T2, Muscarinic acetylcholine receptor M1; assay: biochemical; remark: listed apart in the source
Description: Binding affinity against mouse muscarinic acetylcholine receptor M1 using cerebral cortex and [3H]pirenzepine

[10] = molecular target: T4, Muscarinic acetylcholine receptor M2; assay: biochemical; remark: listed apart in the source
Mus musculus [11] = assay: Effect on brain acetylcholine concentration in mice after intraperitoneal administration of 40% lethal dose (68 mg/kg); type: functional
Mus musculus [12] = assay: Effect on brain acetylcholine concentration in mice after intraperitoneal administration of 80% lethal dose (140 mg/kg); type: functional
Rattus norvegicus [13] = species: Rattus norvegicus; assay: Concentration required to potentiate the contraction of isolated rat ileum produced by 1 x 10 e -7 M Ach by 20 %; inactive; type: functional
Mus musculus [14] = assay: Effect on brain acetylcholine concentration in mice after intraperitoneal administration of 40% lethal dose (68 mg/kg; type: functional
Mus musculus [15] = assay: Effect on brain acetylcholine concentration in mice after intraperitoneal administration of 80% lethal dose (170 mg/kg); type: functional
[16] = molecular target: T3, Muscarinic acetylcholine receptor M2; assay: Binding affinity against rat muscarinic acetylcholine receptor M2 using heart tissue and [3H]N-methylscopolamine
Acetylcholinesterase [17] = molecular target: T1, Acetylcholinesterase; assay: In vitro acetyl cholinesterase (AChE-I) inhibitory activity to determine its ability to reverse the cholinergic deficit characteristic of AD
[18] = molecular target: T2, Muscarinic acetylcholine receptor M1; assay: biochemical; remark: listed apart in the source
Description: Binding affinity against mouse Muscarinic acetylcholine receptor M1 using cerebral cortex and [3H]pirenzepine

Mus musculus [19] = assay: Effect on brain acetylcholine concentration in mice after intraperitoneal administration of 80% lethal dose (80 mg/kg)(***: p <= 0.001); type: functional
Mus musculus [20] = assay: Effect on brain acetylcholine concentration in mice after intraperitoneal administration of 60% lethal dose (66 mg/kg); type: functional
[21] = molecular target: T4, Muscarinic acetylcholine receptor M2; assay: Ability to displace [3H]methylscopolamine ([3H]NMS) from mouse cerebral cortex; type: tissue-based
[22] = molecular target: T4, Muscarinic acetylcholine receptor M2; assay: Ability to displace [3H]oxotremorine ([3H]OXO-M) from mouse cerebral cortex; type: tissue-based

T1 sequence (P22303 whole entry): as the sequence (P22303 whole entry, looked up) above

CN(C)Cc1ccc(CSCCNc2cc(F)c([N+](=O)[O-])cc2[N+](=O)[O-])o1
IC50 (Acetylcholinesterase [1]): 120 nM
Ileal activity (Rattus norvegicus [2]): <0.01 µM
IC50 [3]: 1800 nM
IC50 (Cholinesterase): 3800 nM
IC50 [4]: 7000 nM
Ratio [5]: 33
Ratio (Rattus norvegicus [6]): 3.9

CN(C)Cc1ccc(CSCCNc2ccc([N+](=O)[O-])cc2[N+](=O)[O-])o1
% of control (Mus musculus [7]): 120.4%
IC50 (Acetylcholinesterase [1]): 200 nM
Ki [8]: 870 nM
IC50 [9]: 1400 nM
Ileal activity (Rattus norvegicus [2]): <0.02 µM
Ki [10]: 12000 nM
IC50 (Cholinesterase): 1800 nM
% of control (Mus musculus [11]): 110.8%
IC50 [4]: 5700 nM
Ratio [5]: 9.2
Ratio (Rattus norvegicus [6]): 4.1
% of control (Mus musculus [12]): 128.4%

CCCCCNc1cc(NCCSCc2ccc(CN(C)C)o2)c([N+](=O)[O-])cc1[N+](=O)[O-]
IC50 (Acetylcholinesterase [1]): 1200 nM

CN(C)Cc1ccc(CSCCNc2cc(NCc3cccnc3)c([N+](=O)[O-])cc2[N+](=O)[O-])o1
IC50 (Acetylcholinesterase [1]): 310 nM
IC50 [3]: 380 nM
IC50 (Cholinesterase): 6100 nM
IC50 [4]: 400 nM
Ratio [5]: 19
Ileal activity (Rattus norvegicus [13]): inactive
Ratio (Rattus norvegicus [6]): 1.1

CN(C)Cc1ccc(CSCCNc2cc(NN)c([N+](=O)[O-])cc2[N+](=O)[O-])o1
% of control (Mus musculus [7]): 128.8%
IC50 (Acetylcholinesterase [1]): 76 nM
Ki [8]: 1100 nM
Ileal activity (Rattus norvegicus [2]): <0.1 µM
IC50 [3]: 3800 nM
Ki [10]: 12000 nM
% of control (Mus musculus [14]): 110%
IC50 (Cholinesterase): 5100 nM
IC50 [4]: 4700 nM
Ratio [5]: 67
% of control (Mus musculus [15]): 126.8%
Ratio (Rattus norvegicus [6]): 1.2

CCCNc1cc(NCCSCc2ccc(CN(C)C)o2)c([N+](=O)[O-])cc1[N+](=O)[O-]
IC50 (Acetylcholinesterase [1]): 260 nM
Ileal activity (Rattus norvegicus [2]): <1 µM
IC50 [3]: 3200 nM
IC50 [16]: 3500 nM
IC50 (Cholinesterase): 3800 nM
Ratio [5]: 15
Ratio (Rattus norvegicus [6]): 1.1

CN(C)Cc1ccc(CSCCNc2nnccc2[N+](=O)[O-])o1
IC50 (Acetylcholinesterase [17]): 470 nM
IC50 [18]: 970 nM
Ileal activity (Rattus norvegicus [2]): <0.1 µM

CN(C)Cc1ccc(CSCCNc2cc(Nc3ccccc3C#N)c([N+](=O)[O-])cc2[N+](=O)[O-])o1
IC50 (Acetylcholinesterase [1]): 630 nM
IC50 [3]: 3300 nM
IC50 (Cholinesterase): 1800 nM
IC50 [4]: 3700 nM
Ratio [5]: 2.8
Ileal activity (Rattus norvegicus [13]): inactive
Ratio (Rattus norvegicus [6]): 1.1

CN(C)Cc1ccc(CSCCNc2cc(Nc3ccc(F)cc3)c([N+](=O)[O-])cc2[N+](=O)[O-])o1
IC50 (Acetylcholinesterase [1]): 680 nM
Ileal activity (Rattus norvegicus [2]): <0.01 µM
IC50 [3]: 2100 nM
IC50 (Cholinesterase): 1100 nM
IC50 [4]: 4400 nM
Ratio [5]: 1.6
Ratio (Rattus norvegicus [6]): 2.1

CNc1cc(NCCSCc2ccc(CN(C)C)o2)c([N+](=O)[O-])cc1[N+](=O)[O-]
IC50 (Acetylcholinesterase [1]): 160 nM
IC50 [3]: 430 nM
IC50 [16]: 3100 nM
IC50 (Cholinesterase): 3300 nM
Ratio [5]: 21
Ileal activity (Rattus norvegicus [13]): inactive
Ratio (Rattus norvegicus [6]): 7.2

CC(C)=NNc1cc(NCCSCc2ccc(CN(C)C)o2)c([N+](=O)[O-])cc1[N+](=O)[O-]
IC50 (Acetylcholinesterase [1]): 440 nM
Ileal activity (Rattus norvegicus [2]): <0.1 µM
IC50 [3]: 3100 nM
IC50 (Cholinesterase): 8400 nM
IC50 [4]: 3500 nM
Ratio [5]: 19
Ratio (Rattus norvegicus [6]): 1.1

CN(C)Cc1ccc(CSCCNc2cc(Nc3ccccc3)c([N+](=O)[O-])cc2[N+](=O)[O-])o1
IC50 (Acetylcholinesterase [1]): 640 nM
IC50 [3]: 6400 nM
IC50 (Cholinesterase): 1600 nM
IC50 [4]: 6400 nM
Ratio [5]: 2.5
Ileal activity (Rattus norvegicus [13]): inactive
Ratio (Rattus norvegicus [6]): 1

CN(C)Cc1ccc(CSCCNc2cc(NCCCN3CCOCC3)c([N+](=O)[O-])cc2[N+](=O)[O-])o1
IC50 (Acetylcholinesterase [1]): 370 nM
Ileal activity (Rattus norvegicus [2]): <0.1 µM
IC50 [3]: 530 nM
IC50 (Cholinesterase): 4700 nM
IC50 [4]: 300 nM
Ratio [5]: 13
Ratio (Rattus norvegicus [6]): 0.57

CN(C)Cc1ccc(CSCCNc2cccc(F)c2C#N)o1
IC50 (Acetylcholinesterase [17]): 2100 nM

CN(C)Cc1ccc(CSCCNc2cc(NCc3ccccc3)c([N+](=O)[O-])cc2[N+](=O)[O-])o1
IC50 [3]: 2000 nM
IC50 [4]: 3300 nM
Ileal activity (Rattus norvegicus [13]): inactive
Ratio (Rattus norvegicus [6]): 1.7

CN(C)Cc1ccc(CSCCNc2cc(N)c([N+](=O)[O-])cc2[N+](=O)[O-])o1
IC50 (Acetylcholinesterase [1]): 83 nM
Ki [8]: 460 nM
Ileal activity (Rattus norvegicus [2]): <0.1 µM
IC50 [3]: 3800 nM
Ki [10]: 9500 nM
IC50 [16]: 6800 nM
IC50 (Cholinesterase): 2400 nM
% of control (Mus musculus [19]): 153.2%
Ratio [5]: 28
Ratio (Rattus norvegicus [6]): 1.8
% of control (Mus musculus [20]): 126.8%

CN(C)Cc1ccc(CSCCNc2cc(NCc3ccccn3)c([N+](=O)[O-])cc2[N+](=O)[O-])o1
IC50 (Acetylcholinesterase [1]): 1300 nM
Ileal activity (Rattus norvegicus [2]): <1 µM
IC50 [3]: 1500 nM
IC50 (Cholinesterase): 5200 nM
IC50 [4]: 2400 nM
Ratio [5]: 4.1
Ratio (Rattus norvegicus [6]): 1.6

CN(C)Cc1ccc(CSCCNc2ccc(F)cc2[N+](=O)[O-])o1
IC50 (Acetylcholinesterase [1]): 650 nM
IC50 [3]: 4000 nM
IC50 (Cholinesterase): 3300 nM
IC50 [4]: 2400 nM
Ratio [5]: 5.1
Ileal activity (Rattus norvegicus [13]): inactive
Ratio (Rattus norvegicus [6]): 0.6

C[N+](C)(C)CCOC(N)=O [CARBACHOL]
Ki [21]: 66000 nM
Ki [22]: 8 nM

O=C1CCCN1CC#CCN1CCCC1 [OXOTREMORINE]
Ki [8]: 1.7 nM
Ki [10]: 1500 nM

CN(C)CCNc1cc(NCCSCc2ccc(CN(C)C)o2)c([N+](=O)[O-])cc1[N+](=O)[O-]
IC50 (Acetylcholinesterase [1]): 520 nM
Ileal activity (Rattus norvegicus [2]): <0.01 µM
IC50 [3]: 670 nM
IC50 (Cholinesterase): 1400 nM
IC50 [4]: 380 nM
Ratio [5]: 2.8
Ratio (Rattus norvegicus [6]): 0.57

CN(C)Cc1ccc(CSCCNc2cc(Nc3ncccc3[N+](=O)[O-])c([N+](=O)[O-])cc2[N+](=O)[O-])o1
IC50 (Acetylcholinesterase [1]): 650 nM
IC50 (Cholinesterase): 18000 nM

CN(C)Cc1ccc(CSCCNc2cc(Oc3ccc([N+](=O)[O-])cc3)c([N+](=O)[O-])cc2[N+](=O)[O-])o1
IC50 (Acetylcholinesterase [1]): 270 nM
IC50 (Cholinesterase): 1100 nM

CNC(=O)Oc1ccc2c(c1)[C@]1(C)CCN(C)[C@@H]1N2C [PHYSOSTIGMINE]
Ileal activity (Rattus norvegicus [2]): <0.005 µM
IC50 [4]: 160000 nM
